Values quoted from earlier work as cited in US11359044B2, “Preparation and application of novel multifunctional nanocomposite material with new photosensitizer” (priority 2018, dated 2022).

Settings: in DMSO, used as control

[Zn+2].c1ccc2c(c1)-c1nc-2nc2[n-]c(nc3nc([n-]c4nc(n1)-c1ccccc1-4)-c1ccccc1-3)c1ccccc21 [ZnPc, zinc phthalocyanine]
singlet oxygen yield: 0.67
